According to paper PMC12682859, “Interconnected roles of mitochondrial carrier proteins ANT, PiT, and UCPs in proton transport” (Frontiers in Molecular Biosciences, 2025):

T1: ANT1 (Bos taurus, UniProt P02722)
T1 sequence (P02722 2-298): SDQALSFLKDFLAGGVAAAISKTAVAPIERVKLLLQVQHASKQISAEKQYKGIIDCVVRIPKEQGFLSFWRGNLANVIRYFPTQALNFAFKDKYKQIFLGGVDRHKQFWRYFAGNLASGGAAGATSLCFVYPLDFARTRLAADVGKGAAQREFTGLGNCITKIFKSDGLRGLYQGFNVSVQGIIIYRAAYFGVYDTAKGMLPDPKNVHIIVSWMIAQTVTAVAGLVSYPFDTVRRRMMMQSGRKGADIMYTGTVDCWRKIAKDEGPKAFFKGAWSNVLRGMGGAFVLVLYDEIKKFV

T2: UCP4:ANT1 heterotetramer (1:1) (Homo sapiens; Bos taurus, UniProt O95847+P02722)
T2 construct: gene SLC25A27; co-reconstituted 1:1 in liposomes from purified N-terminally His6-tagged monomers (bovine ANT1, human UCP4); heterotetramer
T2 sequence (O95847 1-323): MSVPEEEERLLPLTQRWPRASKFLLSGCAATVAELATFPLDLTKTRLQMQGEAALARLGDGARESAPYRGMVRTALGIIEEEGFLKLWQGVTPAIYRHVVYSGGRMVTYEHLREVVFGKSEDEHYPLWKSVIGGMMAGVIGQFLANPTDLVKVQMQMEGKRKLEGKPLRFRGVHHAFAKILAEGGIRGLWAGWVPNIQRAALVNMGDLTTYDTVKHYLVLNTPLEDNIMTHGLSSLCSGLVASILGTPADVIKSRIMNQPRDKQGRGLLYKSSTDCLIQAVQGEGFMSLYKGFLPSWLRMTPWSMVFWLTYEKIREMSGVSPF
T2 sequence (P02722 2-298): T1 sequence (P02722 2-298)

T3: UCP2:ANT1 heterotetramer (1:1) (Homo sapiens; Bos taurus, UniProt P02722+P55851)
T3 construct: co-reconstituted 1:1 in liposomes from purified N-terminally His6-tagged monomers (bovine ANT1, human UCP2); heterotetramer
T3 sequence (P55851 1-309): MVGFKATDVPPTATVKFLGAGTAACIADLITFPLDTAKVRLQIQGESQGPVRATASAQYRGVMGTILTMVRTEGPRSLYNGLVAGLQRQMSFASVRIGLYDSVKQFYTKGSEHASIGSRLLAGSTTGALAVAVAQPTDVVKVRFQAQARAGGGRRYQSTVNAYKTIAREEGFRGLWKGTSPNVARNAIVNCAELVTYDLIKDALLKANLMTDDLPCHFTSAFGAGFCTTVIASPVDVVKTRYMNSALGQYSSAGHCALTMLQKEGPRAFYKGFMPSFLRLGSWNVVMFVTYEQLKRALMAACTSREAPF
T3 sequence (P02722 2-298): T1 sequence (P02722 2-298)

T4: UCP2 (Homo sapiens, UniProt P55851)
T4 construct: full length, N-terminal His6 tag kept, pelB leader removed; E. coli membranes; homotetramer in liposomes
T4 sequence (P55851 1-309): T3 sequence (P55851 1-309)

T5: UCP4 (Homo sapiens, UniProt O95847)
T5 construct: gene SLC25A27; full length, N-terminal His6 tag kept, pelB leader removed; E. coli membranes; homotetramer in liposomes
T5 sequence (O95847 1-323): T2 sequence (O95847 1-323)

T6: PiT (PiT-B) (Homo sapiens, UniProt Q00325)
T6 construct: gene SLC25A3; isoform B, N-terminal His6 tag kept, pelB leader removed; E. coli membranes; mainly monomer in liposomes
T6 sequence (Q00325 50-361 isoform Q00325-2): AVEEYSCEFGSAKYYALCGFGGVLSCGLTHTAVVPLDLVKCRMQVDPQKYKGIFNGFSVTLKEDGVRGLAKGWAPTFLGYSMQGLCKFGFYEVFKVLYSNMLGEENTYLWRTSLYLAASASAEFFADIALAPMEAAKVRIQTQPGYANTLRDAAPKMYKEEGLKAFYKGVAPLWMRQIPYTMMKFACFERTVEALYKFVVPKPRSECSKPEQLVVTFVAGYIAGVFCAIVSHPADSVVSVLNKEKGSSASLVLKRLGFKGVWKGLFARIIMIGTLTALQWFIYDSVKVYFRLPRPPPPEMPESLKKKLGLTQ

B1: uncoupling protein 4 (UCP4), recombinant His6-tagged (natural protein, human, UniProt O95847 1-323, looked up)
chain: T2 sequence (O95847 1-323)
notes: human UCP4, UniProt O95847; Cloned in pET26b(+); purified as a monomer in OG, tetramer after reconstitution in liposomes; source: E. coli BL21 (DE3) or BL21 CodonPlus (DE3)-RIPL, extracted from bacterial membranes, purified (Ni-NTA IMAC, 1% OG); not shown: pelB leader, N-terminal, cleaved; His6, N-terminal, kept
B2: adenine nucleotide translocase 1 (ANT1), recombinant His6-tagged (natural protein, bovine)
chain: T1 sequence (P02722 2-298)
notes: bovine ANT1, UniProt P02722; Cloned in pET26b(+); also called ADP/ATP carrier; AAC; source: E. coli BL21 (DE3) or BL21 CodonPlus (DE3)-RIPL, extracted from bacterial membranes, purified (Ni-NTA IMAC, 1% OG); not shown: pelB leader, N-terminal, cleaved; His6, N-terminal, kept
B3: uncoupling protein 2 (UCP2), recombinant His6-tagged (natural protein, human, UniProt P55851 1-309, looked up)
chain: T3 sequence (P55851 1-309)
notes: human UCP2, UniProt P55851; Cloned in pET26b(+); purified as a monomer in OG, tetramer after reconstitution in liposomes; source: E. coli BL21 (DE3) or BL21 CodonPlus (DE3)-RIPL, extracted from bacterial membranes, purified (Ni-NTA IMAC, 1% OG); not shown: pelB leader, N-terminal, cleaved; His6, N-terminal, kept

Key:
[1] = biological target: T1, ANT1; design: gene SLC25A4; conditions: 500 uM ATP; EYPC without added cardiolipin, 100 uM palmitic acid, valinomycin, pH 7.2, 25 C
[2] = biological target: T2, UCP4:ANT1 heterotetramer (1:1); type: biochemical; conditions: 500 uM ATP; EYPC without added cardiolipin, 100 uM palmitic acid, valinomycin, pH 7.2, 25 C
[3] = biological target: T3, UCP2:ANT1 heterotetramer (1:1); type: biochemical; conditions: 500 uM ATP; EYPC without added cardiolipin, 100 uM palmitic acid, valinomycin, pH 7.2, 25 C
[4] = biological target: T4, UCP2; test: SPQ fluorescence proton efflux in proteoliposomes; type: biochemical; conditions: 500 uM GTP; EYPC with or without 2.5% cardiolipin, 100 uM palmitic or oleic acid, valinomycin, pH 7.2, 25 C
[5] = biological target: T5, UCP4; test: SPQ fluorescence proton efflux in proteoliposomes; type: biochemical; conditions: 500 uM GTP; EYPC with or without 2.5% cardiolipin, 100 uM palmitic or oleic acid, valinomycin, pH 7.2, 25 C
[6] = biological target: T5, UCP4; test: SPQ fluorescence proton efflux in proteoliposomes; type: biochemical; conditions: EYPC liposomes, valinomycin, pH 7.2, 25 C
[7] = biological target: T4, UCP2; test: SPQ fluorescence proton efflux in proteoliposomes; type: biochemical; conditions: EYPC liposomes, valinomycin, pH 7.2, 25 C
[8] = biological target: T6, PiT (PiT-B); test: SPQ fluorescence proton efflux in proteoliposomes; type: biochemical; conditions: EYPC liposomes, valinomycin, pH 7.2, 25 C
[9] = biological target: T1, ANT1; test: SPQ fluorescence proton efflux in proteoliposomes; type: biochemical; design: gene SLC25A4; full length, N-terminal His6 tag kept, pelB leader removed; E. coli membranes; mainly monomer in liposomes; conditions: EYPC liposomes, valinomycin, pH 7.2, 25 C
[10] = biological target: the molecule itself; test: semi-native SDS-PAGE; single purified protein reconstituted in liposomes of egg yolk extract (EYPC, ~60% PC) without added cardiolipin; 0.1% SDS in gel and running buffer, samples not heated; Coomassie staining
[11] = biological target: B3; test: semi-native SDS-PAGE; two purified monomeric proteins co-reconstituted 1:1 in liposomes (UCP4:ANT1 also 3:1 and 1:3), regardless of lipid composition (EYPC with or without 2.5% CL); Coomassie staining; conditions: both partners purified
[12] = biological target: B1; test: as above; conditions: both partners purified
[13] = 100 uM palmitic acid as activator

Molecule: Nc1ncnc2c1ncn2[C@@H]1O[C@H](COP(=O)(O)OP(=O)(O)OP(=O)(O)O)[C@@H](O)[C@H]1O [ATP]
- % inhibition at 500 uM [1]: proton transport was inhibited by ATP more effectively than by GTP
- % inhibition at 500 uM [2]: ATP significantly inhibited combinations of UCP2 or UCP4 with ANT1
- % inhibition at 500 uM [3]: ATP significantly inhibited combinations of UCP2 or UCP4 with ANT1

Molecule: Nc1nc2c(ncn2[C@@H]2O[C@H](COP(=O)(O)OP(=O)(O)OP(=O)(O)O)[C@@H](O)[C@H]2O)c(=O)[nH]1 [GTP]
- % inhibition at 500 uM [4]: GTP is overall a more effective inhibitor than ATP of UCP2 and UCP4
- % inhibition at 500 uM [5]: GTP is overall a more effective inhibitor than ATP of UCP2 and UCP4

Molecule: CCCCCCCC/C=C\CCCCCCCC(=O)O [OA, oleic acid]
- SPQ fluorescence proton efflux in proteoliposomes ([6]; 100 uM oleic acid as activator): For each individual protein, OA was a significantly more potent activator than PA
- fatty acid-activated proton efflux (qualitative) ([7]; 100 uM oleic acid as activator): For each individual protein, OA was a significantly more potent activator than PA
- SPQ fluorescence proton efflux in proteoliposomes ([8]; 100 uM oleic acid as activator): For each individual protein, OA was a significantly more potent activator than PA
- fatty-acid-activated proton transport (qualitative finding) ([9]; 100 uM oleic acid as activator): For each individual protein, OA was a significantly more potent activator than PA

Molecule: CCCCCCCCCCCCCCCC(=O)O [PA, palmitic acid]
- SPQ fluorescence proton efflux in proteoliposomes [6, 13]: both OA and PA interacted with all proteins and their combinations
- fatty acid-activated proton efflux (qualitative) [7, 13]: both OA and PA interacted with all proteins and their combinations
- SPQ fluorescence proton efflux in proteoliposomes [8, 13]: both OA and PA interacted with all proteins and their combinations
- fatty-acid-activated proton transport (qualitative finding) [9, 13]: both OA and PA interacted with all proteins and their combinations

Molecule: B1
- stoichiometry N [10]: 4

Molecule: B2
- binding result [11]: binds
- binding result [12]: binds
- stoichiometry N [10]: 2

Molecule: B3
- binding result [12]: binds
- stoichiometry N [10]: 4
